Test results taken from ChEMBL document CHEMBL4507263, “Data for DCP probe BAY-474” (2021).

Legend:
[1] = molecular target: Activin receptor type-1 (Homo sapiens) (UniProt Q04771); settings: Compound concentration 1000.0 nM
[2] = molecular target: Cyclin-dependent kinase 11B (Homo sapiens) (UniProt P21127); settings: Compound concentration 1000.0 nM
[3] = molecular target: Cyclin-dependent kinase 2 (Homo sapiens) (UniProt P24941); settings: Compound concentration 1000.0 nM
[4] = molecular target: Macrophage colony-stimulating factor 1 receptor (Homo sapiens) (UniProt P07333); settings: Compound concentration 1000.0 nM
[5] = molecular target: Mitogen-activated protein kinase 1 (Homo sapiens) (UniProt P28482); settings: Compound concentration 1000.0 nM
[6] = system: Receptor-type tyrosine-protein kinase FLT3 (Homo sapiens), P36888 [D835H]; settings: Compound concentration 1000.0 nM
[7] = molecular target: Serine/threonine-protein kinase haspin (Homo sapiens) (UniProt Q8TF76); settings: Compound concentration 1000.0 nM
[8] = molecular target: Inhibitor of nuclear factor kappa-B kinase subunit epsilon (Homo sapiens) (UniProt Q14164); settings: Compound concentration 1000.0 nM
[9] = molecular target: Mitogen-activated protein kinase kinase kinase 2 (Homo sapiens) (UniProt Q9Y2U5); settings: Compound concentration 1000.0 nM
[10] = system: Hepatocyte growth factor receptor (Homo sapiens), P08581 [Y1235D]; settings: Compound concentration 1000.0 nM
[11] = molecular target: Cyclin-dependent kinase 16 (Homo sapiens) (UniProt Q00536); settings: Compound concentration 1000.0 nM
[12] = molecular target: Phosphorylase b kinase gamma catalytic chain, skeletal muscle/heart isoform (Homo sapiens) (UniProt Q16816); settings: Compound concentration 1000.0 nM
[13] = molecular target: Phosphatidylinositol 3-kinase C2 domain-containing subunit gamma (Homo sapiens) (UniProt O75747); settings: Compound concentration 1000.0 nM
[14] = molecular target: Phosphatidylinositol 4-kinase beta (Homo sapiens) (UniProt Q9UBF8); settings: Compound concentration 1000.0 nM
[15] = molecular target: Phosphatidylinositol 4-phosphate 5-kinase type-1 alpha (Homo sapiens) (UniProt Q99755); settings: Compound concentration 1000.0 nM
[16] = molecular target: Phosphatidylinositol 5-phosphate 4-kinase type-2 beta (Homo sapiens) (UniProt P78356); settings: Compound concentration 1000.0 nM
[17] = molecular target: Serine/threonine-protein kinase PLK3 (Homo sapiens) (UniProt Q9H4B4); settings: Compound concentration 1000.0 nM
[18] = molecular target: Serine/threonine-protein kinase PLK4 (Homo sapiens) (UniProt O00444); settings: Compound concentration 1000.0 nM
[19] = molecular target: Protein kinase C delta type (Homo sapiens) (UniProt Q05655); settings: Compound concentration 1000.0 nM
[20] = molecular target: T1, Ribosomal protein S6 kinase alpha-3 (Homo sapiens, UniProt P51812); settings: Compound concentration 1000.0 nM
[21] = molecular target: SNF-related serine/threonine-protein kinase (Homo sapiens) (UniProt Q9NRH2); settings: Compound concentration 1000.0 nM
[22] = molecular target: Dual specificity testis-specific protein kinase 1 (Homo sapiens) (UniProt Q15569); settings: Compound concentration 1000.0 nM
[23] = molecular target: BDNF/NT-3 growth factors receptor (Homo sapiens) (UniProt Q16620); settings: Compound concentration 1000.0 nM
[24] = molecular target: Serine/threonine-protein kinase 32B (Homo sapiens) (UniProt Q9NY57); settings: Compound concentration 1000.0 nM
[25] = molecular target: Serine/threonine-protein kinase BRSK1 (Homo sapiens) (UniProt Q8TDC3); assay: BrSK1 (h) Millipore kinase activity assay; settings: Compound concentration 1.0 uM
[26] = molecular target: Death-associated protein kinase 2 (Homo sapiens) (UniProt Q9UIK4); assay: DAPK2 (h) Millipore kinase activity assay; settings: Compound concentration 1.0 uM
[27] = molecular target: Serine/threonine-protein kinase DCLK2 (Homo sapiens) (UniProt Q8N568); assay: DCAMKL2 (h) Millipore kinase activity assay; settings: Compound concentration 1.0 uM
[28] = molecular target: Mitogen-activated protein kinase kinase kinase 9 (Homo sapiens) (UniProt P80192); assay: MLK1 (h) Millipore kinase activity assay; settings: Compound concentration 1.0 uM
[29] = molecular target: Protein kinase C beta type (Homo sapiens) (UniProt P05771); assay: PKCbetaII (h) Millipore kinase activity assay; settings: Compound concentration 1.0 uM
[30] = molecular target: Protein kinase C eta type (Homo sapiens) (UniProt P24723); assay: PKCeta (h) Millipore kinase activity assay; settings: Compound concentration 1.0 uM
[31] = molecular target: T1, Ribosomal protein S6 kinase alpha-3; assay: Rsk2 (h) Millipore kinase activity assay
[32] = molecular target: Serine/threonine-protein kinase WNK2 (Homo sapiens) (UniProt Q9Y3S1); assay: WNK2 (h) Millipore kinase activity assay; settings: Compound concentration 1.0 uM
[33] = molecular target: T2, Alpha-1D adrenergic receptor (Homo sapiens) (UniProt P25100); assay: Inhibition of Adrenergic alpha1D at 10 µM in the Eurofins-Panlabs radioligand binding assay (Eurofins_assay_203400); settings: Compound concentration 10.0 uM
T2 sequence (whole entry): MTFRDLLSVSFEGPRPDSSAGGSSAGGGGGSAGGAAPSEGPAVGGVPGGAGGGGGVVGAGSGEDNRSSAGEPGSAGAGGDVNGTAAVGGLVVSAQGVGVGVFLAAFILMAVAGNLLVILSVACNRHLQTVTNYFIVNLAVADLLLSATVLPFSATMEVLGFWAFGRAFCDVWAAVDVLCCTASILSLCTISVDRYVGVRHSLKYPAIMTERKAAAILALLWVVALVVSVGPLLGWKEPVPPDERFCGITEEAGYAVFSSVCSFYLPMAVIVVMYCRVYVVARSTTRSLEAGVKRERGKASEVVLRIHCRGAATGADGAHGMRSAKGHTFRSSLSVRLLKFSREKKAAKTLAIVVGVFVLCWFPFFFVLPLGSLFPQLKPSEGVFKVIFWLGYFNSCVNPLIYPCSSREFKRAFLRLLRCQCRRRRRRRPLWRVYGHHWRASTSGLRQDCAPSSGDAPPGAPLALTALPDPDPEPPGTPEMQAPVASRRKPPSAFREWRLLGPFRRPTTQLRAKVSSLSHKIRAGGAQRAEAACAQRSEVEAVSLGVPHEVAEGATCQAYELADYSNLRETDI

[34] = molecular target: L-type calcium channel, benzothiazepine site (Cav1.2 alpha-1C) (Homo sapiens, UniProt Q13936); assay: Inhibition of Calcium Channel L-Type, Benzothiazepine at 10 µM in the Eurofins-Panlabs radioligand binding assay (Eurofins_assay_214510); design: ligand concentration 2 nM, non-specific ligand with concentration 10 µM Diltiazem, incubation time 3h, incubation temperature 4 °C; settings: male, Wistar, rat, rat whole brain preparation, probe [3H] Diltiazem; compound concentration 10 uM; target entry is the homologue from another species
[35] = molecular target: Sodium-dependent noradrenaline transporter (Homo sapiens) (UniProt P23975); settings: Compound concentration 10.0 uM

T1 sequence (P51812 whole entry): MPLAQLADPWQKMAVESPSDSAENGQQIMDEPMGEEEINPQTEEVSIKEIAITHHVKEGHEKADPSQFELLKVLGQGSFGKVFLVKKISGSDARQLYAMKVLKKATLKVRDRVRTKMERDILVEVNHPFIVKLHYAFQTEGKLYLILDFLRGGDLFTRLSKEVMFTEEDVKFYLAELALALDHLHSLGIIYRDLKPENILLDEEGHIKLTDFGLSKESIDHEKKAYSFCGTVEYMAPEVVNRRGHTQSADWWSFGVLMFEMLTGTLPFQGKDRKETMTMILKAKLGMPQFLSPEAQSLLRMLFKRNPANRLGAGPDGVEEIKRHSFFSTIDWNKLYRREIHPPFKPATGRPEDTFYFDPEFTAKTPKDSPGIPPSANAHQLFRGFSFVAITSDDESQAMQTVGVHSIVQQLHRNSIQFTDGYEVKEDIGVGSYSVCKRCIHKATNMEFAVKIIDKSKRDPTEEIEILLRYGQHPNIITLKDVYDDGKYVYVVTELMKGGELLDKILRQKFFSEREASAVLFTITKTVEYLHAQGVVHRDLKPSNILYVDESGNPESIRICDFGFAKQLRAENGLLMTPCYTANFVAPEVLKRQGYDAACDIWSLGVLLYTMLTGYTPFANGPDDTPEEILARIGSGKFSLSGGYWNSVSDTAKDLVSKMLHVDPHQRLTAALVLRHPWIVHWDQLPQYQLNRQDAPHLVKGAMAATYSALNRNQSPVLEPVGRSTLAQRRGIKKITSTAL
Chain of SNF-related serine/threonine-protein kinase (Homo sapiens) (Q9NRH2 whole entry): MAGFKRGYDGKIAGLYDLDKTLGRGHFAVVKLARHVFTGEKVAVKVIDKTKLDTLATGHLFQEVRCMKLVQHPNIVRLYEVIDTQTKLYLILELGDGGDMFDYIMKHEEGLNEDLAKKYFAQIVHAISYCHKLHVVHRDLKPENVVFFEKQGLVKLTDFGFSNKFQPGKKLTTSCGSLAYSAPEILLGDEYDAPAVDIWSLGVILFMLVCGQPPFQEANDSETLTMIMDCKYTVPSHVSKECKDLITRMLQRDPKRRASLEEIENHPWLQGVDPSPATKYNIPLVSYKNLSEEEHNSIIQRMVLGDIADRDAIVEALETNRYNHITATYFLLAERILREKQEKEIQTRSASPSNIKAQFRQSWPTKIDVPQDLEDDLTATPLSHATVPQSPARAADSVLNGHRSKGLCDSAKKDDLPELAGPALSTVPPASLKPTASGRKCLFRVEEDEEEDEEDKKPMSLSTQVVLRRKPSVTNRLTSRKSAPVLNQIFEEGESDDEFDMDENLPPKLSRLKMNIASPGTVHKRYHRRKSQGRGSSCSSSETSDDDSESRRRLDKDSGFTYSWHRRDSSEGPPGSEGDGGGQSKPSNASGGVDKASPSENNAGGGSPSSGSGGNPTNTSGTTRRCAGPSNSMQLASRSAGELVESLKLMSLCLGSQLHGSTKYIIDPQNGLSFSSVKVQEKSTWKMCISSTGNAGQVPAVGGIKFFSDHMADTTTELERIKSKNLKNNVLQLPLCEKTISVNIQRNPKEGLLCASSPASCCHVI
Chain of Serine/threonine-protein kinase PLK3 (Homo sapiens) (Q9H4B4 whole entry, looked up): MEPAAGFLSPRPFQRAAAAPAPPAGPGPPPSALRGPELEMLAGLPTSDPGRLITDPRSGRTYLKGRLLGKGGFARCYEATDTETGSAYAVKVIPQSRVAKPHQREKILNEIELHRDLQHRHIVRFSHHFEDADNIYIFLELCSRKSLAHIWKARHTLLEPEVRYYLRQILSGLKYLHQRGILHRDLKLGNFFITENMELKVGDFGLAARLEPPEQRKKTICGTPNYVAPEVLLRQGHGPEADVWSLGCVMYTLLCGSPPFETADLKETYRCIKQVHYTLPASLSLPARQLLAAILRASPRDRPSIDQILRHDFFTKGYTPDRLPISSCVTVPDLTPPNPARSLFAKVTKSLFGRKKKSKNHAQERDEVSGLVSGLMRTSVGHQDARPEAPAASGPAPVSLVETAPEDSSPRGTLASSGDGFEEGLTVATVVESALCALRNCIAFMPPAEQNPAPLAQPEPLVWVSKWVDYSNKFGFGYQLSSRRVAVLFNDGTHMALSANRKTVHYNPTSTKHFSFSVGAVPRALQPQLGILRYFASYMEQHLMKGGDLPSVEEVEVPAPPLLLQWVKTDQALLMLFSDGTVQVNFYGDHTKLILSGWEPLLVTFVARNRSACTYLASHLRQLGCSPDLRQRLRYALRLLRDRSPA
Chain of L-type calcium channel, benzothiazepine site (Cav1.2 alpha-1C) (Q13936 whole entry): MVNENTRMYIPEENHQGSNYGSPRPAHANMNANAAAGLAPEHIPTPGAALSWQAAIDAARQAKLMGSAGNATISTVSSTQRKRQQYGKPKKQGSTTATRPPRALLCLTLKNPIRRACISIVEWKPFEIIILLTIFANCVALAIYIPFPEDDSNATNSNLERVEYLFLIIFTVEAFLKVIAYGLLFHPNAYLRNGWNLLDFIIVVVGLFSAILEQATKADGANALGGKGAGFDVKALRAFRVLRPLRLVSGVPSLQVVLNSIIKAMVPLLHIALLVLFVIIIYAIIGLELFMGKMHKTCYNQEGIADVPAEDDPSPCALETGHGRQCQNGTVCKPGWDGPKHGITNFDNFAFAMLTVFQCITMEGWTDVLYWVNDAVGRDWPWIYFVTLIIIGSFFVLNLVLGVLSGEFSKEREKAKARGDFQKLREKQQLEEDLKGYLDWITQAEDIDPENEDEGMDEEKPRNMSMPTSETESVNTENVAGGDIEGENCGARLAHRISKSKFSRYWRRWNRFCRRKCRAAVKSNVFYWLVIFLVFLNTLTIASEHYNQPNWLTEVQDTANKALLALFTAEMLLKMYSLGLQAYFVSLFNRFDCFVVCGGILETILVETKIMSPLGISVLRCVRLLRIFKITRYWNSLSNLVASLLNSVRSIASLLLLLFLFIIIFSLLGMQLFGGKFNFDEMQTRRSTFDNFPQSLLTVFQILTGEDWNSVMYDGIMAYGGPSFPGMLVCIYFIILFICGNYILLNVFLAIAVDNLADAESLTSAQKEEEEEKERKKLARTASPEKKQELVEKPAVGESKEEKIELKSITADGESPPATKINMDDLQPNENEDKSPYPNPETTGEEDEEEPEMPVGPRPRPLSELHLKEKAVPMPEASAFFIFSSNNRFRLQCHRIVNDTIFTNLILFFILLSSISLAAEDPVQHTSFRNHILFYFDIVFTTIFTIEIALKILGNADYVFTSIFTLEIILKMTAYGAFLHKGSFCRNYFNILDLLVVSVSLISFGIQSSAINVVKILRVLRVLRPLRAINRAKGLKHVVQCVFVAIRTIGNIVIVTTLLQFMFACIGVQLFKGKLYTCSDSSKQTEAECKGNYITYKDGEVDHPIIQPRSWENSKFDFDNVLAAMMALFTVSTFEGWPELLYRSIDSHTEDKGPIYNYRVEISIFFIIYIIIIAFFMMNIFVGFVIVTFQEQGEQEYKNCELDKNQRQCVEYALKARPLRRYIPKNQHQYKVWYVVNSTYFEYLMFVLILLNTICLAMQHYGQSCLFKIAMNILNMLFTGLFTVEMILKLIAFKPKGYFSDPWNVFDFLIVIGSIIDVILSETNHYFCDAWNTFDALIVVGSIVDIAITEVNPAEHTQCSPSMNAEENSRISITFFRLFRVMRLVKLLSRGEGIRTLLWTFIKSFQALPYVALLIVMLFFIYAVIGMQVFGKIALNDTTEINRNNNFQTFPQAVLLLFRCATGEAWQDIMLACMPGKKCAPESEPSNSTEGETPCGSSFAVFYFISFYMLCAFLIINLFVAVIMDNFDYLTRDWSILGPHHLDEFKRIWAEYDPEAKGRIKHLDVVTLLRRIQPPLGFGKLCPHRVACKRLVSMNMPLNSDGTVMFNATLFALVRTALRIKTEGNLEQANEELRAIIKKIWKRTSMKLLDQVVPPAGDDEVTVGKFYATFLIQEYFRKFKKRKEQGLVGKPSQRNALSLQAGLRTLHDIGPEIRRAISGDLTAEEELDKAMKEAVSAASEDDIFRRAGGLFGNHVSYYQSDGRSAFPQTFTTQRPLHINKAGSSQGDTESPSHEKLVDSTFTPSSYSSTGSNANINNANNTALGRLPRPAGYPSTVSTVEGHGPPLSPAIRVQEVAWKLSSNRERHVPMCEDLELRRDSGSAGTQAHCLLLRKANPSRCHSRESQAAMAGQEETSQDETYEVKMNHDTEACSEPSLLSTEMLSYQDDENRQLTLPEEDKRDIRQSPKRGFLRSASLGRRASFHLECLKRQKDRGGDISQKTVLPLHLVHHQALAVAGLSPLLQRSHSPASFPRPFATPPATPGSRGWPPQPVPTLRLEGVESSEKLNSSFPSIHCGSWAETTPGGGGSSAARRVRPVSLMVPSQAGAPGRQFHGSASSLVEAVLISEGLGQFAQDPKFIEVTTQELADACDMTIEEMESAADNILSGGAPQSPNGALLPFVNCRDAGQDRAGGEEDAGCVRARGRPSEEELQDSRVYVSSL
Chain of Mitogen-activated protein kinase kinase kinase 2 (Homo sapiens) (Q9Y2U5 whole entry): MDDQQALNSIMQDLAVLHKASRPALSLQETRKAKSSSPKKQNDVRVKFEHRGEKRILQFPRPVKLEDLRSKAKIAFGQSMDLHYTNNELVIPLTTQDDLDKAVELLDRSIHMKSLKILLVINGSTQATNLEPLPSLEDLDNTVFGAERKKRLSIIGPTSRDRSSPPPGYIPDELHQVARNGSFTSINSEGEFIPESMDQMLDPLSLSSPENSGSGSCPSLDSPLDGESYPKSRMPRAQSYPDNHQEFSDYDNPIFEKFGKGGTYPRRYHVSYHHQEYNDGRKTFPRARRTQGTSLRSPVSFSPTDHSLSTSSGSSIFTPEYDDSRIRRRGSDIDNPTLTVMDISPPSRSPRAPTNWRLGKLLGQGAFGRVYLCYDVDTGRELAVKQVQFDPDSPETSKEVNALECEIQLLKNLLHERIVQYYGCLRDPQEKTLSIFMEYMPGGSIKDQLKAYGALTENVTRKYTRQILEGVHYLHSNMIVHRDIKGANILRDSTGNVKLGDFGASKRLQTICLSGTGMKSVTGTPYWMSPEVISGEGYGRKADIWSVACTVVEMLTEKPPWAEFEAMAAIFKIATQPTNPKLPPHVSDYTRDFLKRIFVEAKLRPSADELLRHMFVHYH

CC1=C(C#N)[C@@H](c2ccc3[nH]nc(C)c3c2)C(C#N)=C(c2ccc(Cl)cc2)N1 [BAY-827]
residual activity [1]: 100%
residual activity [2]: 91.6%
residual activity [3]: 100%
residual activity [4]: 100%
residual activity [5]: 100%
residual activity [6]: 100%
residual activity [7]: 100%
residual activity [8]: 100%
residual activity [9]: 72.2%
residual activity [10]: 52.6%
residual activity [11]: 88.9%
residual activity [12]: 100%
residual activity [13]: 93.9%
residual activity [14]: 95.1%
residual activity [15]: 100%
residual activity [16]: 69.3%
residual activity [17]: 77.5%
residual activity [18]: 100%
residual activity [19]: 86.3%
residual activity [20]: 78.1%
residual activity [21]: 100%
residual activity [22]: 100%
residual activity [23]: 85.2%
residual activity [24]: 100%

CC1=C(C#N)C(c2ccc3[nH]nc(C)c3c2)C(C#N)=C(C)N1 [BAY-474]
inhibition [25]: 9%
inhibition [26]: -4%
inhibition [27]: -5%
inhibition [28]: -1%
inhibition [29]: 7%
inhibition [30]: -3%
IC50 [31]: 0.9 µM
inhibition ([31]; Compound concentration 1.0 uM): 46%
inhibition [32]: -8%
inhibition [33]: -9%
inhibition at 3 h, 10 µM [34]: -9% (not active)
inhibition [35]: 6%
